# Assay results from patent publication US7943577B2, “Alpha-fetoprotein peptides and uses thereof” (Albany Medical College, priority 2001, dated 2011).
# Legend:
# F98 glioma cells = experiment: PCNA and nuclear ERα immunoblot, F98; format: cell-based, murine; design: key to Total Nuclear Estrogen Receptor / PCNA accumulation: “+” indicates increase; “−” indicates decrease; “NC” indicates no change
# Experimental: (§1) Cell lines. Glioma cells: C6 cells were cultured in F-12K medium with 18% FBS. F98 cells and GL261 cells were cultured in DMEM with 10% FBS. Head and neck cancer: 22B cells were cultured in DMEM with 10% FBS. Papillary thyroid cancers: BHP2-7 cells and BHP18-21 cells were cultured in DMEM with 10% FBS. Small cell lung cancer: HTB184 cells were cultured in RPMI medium with 10% FBS. Breast cancers: MCF-7 cells were cultured in DMEM (w/o phenol red) with 5% FBS and MDA-MB cells were cultured in DMEM with 10% FBS. Colon cancer: Colo 205 cells were cultured in RPMI medium with 10% FBS. Ovarian cancer: OVCAR-3 cells were culture in RPMI medium with 20% FBS supplemented with insulin. Prostate cancers: LNCaP cells were cultured in RPMI medium with 10% FBS. DU145 cells were cultured in MEM with 10% FBS and PC3 cells were cultured in F-12 medium with 10% FBS. Cervical cancer: HeLa cells were cultured in MEM with 10% FBS. Melanoma cells were cultured in DMEM with 10% FBS. These conditions were determined to maintain cellular production of proliferating cell nuclear antigen (PCNA) at high levels immediately prior to study of AFP-related peptide. All cell cultures were maintained in a 5% CO2/95% O2 incubator at 37 C. Cell fractionation. Fractionation in a microfuge and preparation of nucleoproteins was by our previously reported methods (1-3). Nuclear extracts were prepared by resuspension of the crude nuclei in high salt buffer (hypotonic buffer with 420 mM NaCl and 20% glycerol) at 4° C. with rocking for 1 hr. The supernatants were collected after subsequent centrifugation at 4° C. and 13,000 rpm for 10 min. Immunoblotting. The techniques are standard and have been described in a number of our publications (1-3). In brief, nucleoproteins were separated on discontinuous SDS-PAGE and then transferred by electroblotting to nitocellulose membranes (Millipore, Bedford, Mass.). […] Immunoreactive proteins are detected by chemiluminescence.
# [1] = test system: MCF-7 breast cancer cells; experiment: PCNA and nuclear ERα immunoblot, MCF-7; format: cell-based, human; design: key to Total Nuclear Estrogen Receptor / PCNA accumulation: “+” indicates increase; “−” indicates decrease; “NC” indicates no change
# Experimental: as §1
# [2] = test system: LNCaP prostate carcinoma cells; experiment: PCNA and nuclear ERα immunoblot, LNCaP; format: cell-based, human; design: key to Total Nuclear Estrogen Receptor / PCNA accumulation: “+” indicates increase; “−” indicates decrease; “NC” indicates no change
# Experimental: as §1
# [3] = test system: HeLa cervical cancer cells; experiment: PCNA and nuclear ERα immunoblot, HeLa; format: cell-based; design: key to Total Nuclear Estrogen Receptor / PCNA accumulation: “+” indicates increase; “−” indicates decrease; “NC” indicates no change
# Experimental: as §1
# [4] = test system: colon cancer (Colo 205) cells; experiment: PCNA and nuclear ERα immunoblot, Colo 205; format: cell-based, human; design: key to Total Nuclear Estrogen Receptor / PCNA accumulation: “+” indicates increase; “−” indicates decrease; “NC” indicates no change
# Experimental: as §1
# [5] = test system: BHP 2-7 papillary thyroid cancer cells; experiment: PCNA and nuclear ERα immunoblot, BHP 2-7; format: cell-based; design: key to Total Nuclear Estrogen Receptor / PCNA accumulation: “+” indicates increase; “−” indicates decrease; “NC” indicates no change
# Experimental: as §1
# C6 glioma cells = experiment: PCNA and nuclear ERα immunoblot, C6; format: cell-based, murine; design: key to Total Nuclear Estrogen Receptor / PCNA accumulation: “+” indicates increase; “−” indicates decrease; “NC” indicates no change
# Experimental: as §1
# cancer cell lines = experiment: PCNA and nuclear ERα immunoblot, summary over cancer cell lines; format: cell-based; details: E2 1×10^−9 M
# Experimental: as §1
# [6] = BHP 2-7 (Papillary Thyroid Cancer)
structure (smiles),measurement,setting,value
"C[C@]12CC[C@@H]3c4ccc(O)cc4CC[C@H]3[C@@H]1CC[C@@H]2O [E2, 17β-estradiol]",PCNA accumulation,F98 glioma cells; F98 (Glioma),+
same,Total Nuclear Estrogen Receptor,F98 glioma cells; F98 (Glioma),+
same,nuclear ERα,"F98 glioma cells; F98, 10^−9 M E2 or 10^−6 M AFP-peptide, 24 h",increased nuclear accumulation of ERα
same,PCNA accumulation,[1]; MCF-7 (Breast Cancer),+
same,Total Nuclear Estrogen Receptor,[1]; MCF-7 (Breast Cancer),+
same,nuclear accumulation of activated ER (phosphoERα),"[1]; MCF-7, 10^−9 M E2 or 10^−8 M AFP-peptide, 24 h",increased nuclear accumulation of activated ER (phosphoERα)
same,PCNA accumulation,[2]; LNCaP (Prostate Cancer),+
same,Total Nuclear Estrogen Receptor,[2]; LNCaP (Prostate Cancer),NC
same,nuclear ERα,"[2]; LNCaP, 10^−9 M E2 or 10^−6 M AFP-peptide, 24 h",did not increase nuclear accumulation of ERα
same,PCNA accumulation,[3]; HeLa (Cervical Cancer),+
same,Total Nuclear Estrogen Receptor,[3]; HeLa (Cervical Cancer),+
same,nuclear ERα,"[3]; HeLa, 10^−9M E2 or 10^−7 M AFP-peptide, 24 h",Neither E2 or AFP-peptide decreased nuclear accumulation of ERα
same,PCNA accumulation,[4]; Colo205 (Colon Cancer),NC
same,Total Nuclear Estrogen Receptor,[4]; Colo205 (Colon Cancer),NC
same,nuclear ERα,"[4]; Colo 205, 10^−9 M E2 or 10^−7 M AFP-peptide, 24 h",did not increase nuclear accumulation of ER
same,PCNA accumulation,[5]; [6],+
same,Total Nuclear Estrogen Receptor,[5]; [6],+
same,nuclear ERα,"[5]; BHP 2-7, 10^−9 M E2 or 10^−7 M AFP-peptide, 24 h",increased nuclear accumulation of ERα
same,PCNA accumulation,C6 glioma cells; C6 (Glioma),+
same,Total Nuclear Estrogen Receptor,C6 glioma cells; C6 (Glioma),+
same,nuclear ERα,"C6 glioma cells; C6, 10^−9 M E2 or 10^−6 M AFP-peptide, 24 h",increased nuclear accumulation of ERα
same,total nuclear accumulation of ERα,"cancer cell lines; 24 hr, C6, F98, GL261, 22B, BHP 2-7, BHP 18-21, HTB 184, MCF-7 and HeLa cells",increased total nuclear accumulation of estrogen receptor-α (ERα)
same,total nuclear ERα,"cancer cell lines; MDA-MB, Colo205, OVCAR-3, LNCaP, and PC3 cells",no significant change in total nuclear ERα
same,total nuclear ERα,cancer cell lines; melanoma cells,decreased the total nuclear ERα
